Assay [1] deals with human Werner helicase (WRN, amino acids 517-1235 with L1074F point mutation) (Homo sapiens (Human), UniProt Q14191, L1074F). The experiment in a line: WRN (BV08) ADP-Glo assay. Format: biochemical. The conditions noted are these: human WRN (aa 517-1235, L1074F), read-out: ADP-Glo_hWRN_IC50. The gist of the method:
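Untagged WRN 517-1235 (L1074F), Sf9/baculovirus-expressed, 0.15 nM, preincubated 15 min with compound, then 5 μM ATP and 0.1 nM annealed DNA duplex added; 60 min at 25 °C in Bicine pH 7.5, 1 mM MgCl2, 1% DMSO. ADP-Glo luminescence; % inhibition vs DMSO and 20 μM NSC-617145 controls, four-parameter IC50 fit.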

Assay [2] concerns p21 induction in HCT 116 cells. The experiment in a line: p21 induction in cells (In-Cell Western, p21/GAPDH ratio). Format: cell-based. To be noted: Homo sapiens, 24 h compound incubation, read-out: p21_EC50. The procedure, abridged:
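HCT 116 cells treated 24 h at 37° C with 11-point, 2-fold dilutions typically from 10 μM, in duplicate. Fixed cells co-stained for p21 (800 nm) and GAPDH (700 nm) by In-Cell Western. p21/GAPDH ratio normalised between DMSO and reference WRN inhibitor controls, and EC50 obtained by nonlinear regression.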

human Werner helicase (WRN, amino acids 517-1235 with L1074F point mutation), sequence (Q14191 other isoform, or with tags, fused parts or gaps L1074F (already in the parent)): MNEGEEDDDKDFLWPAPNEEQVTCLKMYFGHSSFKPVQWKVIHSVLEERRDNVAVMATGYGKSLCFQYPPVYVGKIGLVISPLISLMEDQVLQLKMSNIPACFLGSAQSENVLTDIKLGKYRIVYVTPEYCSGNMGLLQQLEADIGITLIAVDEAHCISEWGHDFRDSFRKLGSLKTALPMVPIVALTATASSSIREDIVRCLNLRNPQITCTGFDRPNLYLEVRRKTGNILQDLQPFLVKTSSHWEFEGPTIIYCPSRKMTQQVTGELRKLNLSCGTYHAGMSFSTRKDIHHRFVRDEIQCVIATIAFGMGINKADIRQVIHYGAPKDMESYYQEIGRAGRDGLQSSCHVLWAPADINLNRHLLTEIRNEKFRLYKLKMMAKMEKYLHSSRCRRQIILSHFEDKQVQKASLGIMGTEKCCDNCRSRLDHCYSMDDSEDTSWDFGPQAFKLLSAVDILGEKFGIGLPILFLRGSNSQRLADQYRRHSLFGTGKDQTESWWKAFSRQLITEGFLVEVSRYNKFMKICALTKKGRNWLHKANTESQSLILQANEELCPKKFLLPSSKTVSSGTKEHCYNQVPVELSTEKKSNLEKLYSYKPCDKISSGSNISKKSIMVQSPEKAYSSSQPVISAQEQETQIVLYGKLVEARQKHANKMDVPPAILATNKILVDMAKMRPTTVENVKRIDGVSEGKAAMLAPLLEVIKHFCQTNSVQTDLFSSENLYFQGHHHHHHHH

For the compound `CCc1c(N2CCN(C(=O)c3cccc4ncoc34)[C@H]3CC[C@@H]32)c(=O)c2nn(C3=CCOCC3)nc2n1CC(=O)NC12CC(C(C)C)(C1)C2` [Compound I-52, 2-{6-[(1S,6S)-5-(1,3-benzoxazole-7-carbonyl)-2,5-diazabicyclo[4.2.0]octan-2-yl]-2-(3,6-dihydro-2H-pyran-4-yl)-5-ethyl-7-oxo-2H,4H,7H-[1,2,3]triazolo[4,5-b]pyridin-4-yl}-N-[3-(propan-2-yl)bicyclo[1.1.1]pentan-1-yl]acetamide], the IC50 in assay [1] lay in the range of 5 to 50 nM. Also, the EC50 in assay [2] was 500 to 2000 nM.
The matching figures for `CCc1c(N2CCN(C(=O)c3c(OC)ncc(C)c3O)CC2)c(=O)c2nn(-c3ccnc(OC)c3)nc2n1CC(=O)NC12CC(C(F)(F)F)(C1)C2` [Compound I-128, 2-{5-ethyl-6-[4-(4-hydroxy-2-methoxy-5-methylpyridine-3-carbonyl)piperazin-1-yl]-2-(2-methoxypyridin-4-yl)-7-oxo-2H,4H,7H-[1,2,3]triazolo[4,5-b]pyridin-4-yl}-N-[3-(trifluoromethyl)bicyclo[1.1.1]pentan-1-yl]acetamide]: 5 to 50 nM and at most 500 nM.
The corresponding values for `CCc1c(N2CCN(C(=O)c3cccnc3OC)[C@H]3CC[C@@H]32)c(=O)c2nn(C3=CCOCC3)nc2n1CC(=O)Nc1ccc(C(F)F)cc1F` [Compound I-211, N-[4-(difluoromethyl)-2-fluorophenyl]-2-[2-(3,6-dihydro-2H-pyran-4-yl)-5-ethyl-6-[(1S,6S)-5-(2-methoxypyridine-3-carbonyl)-2,5-diazabicyclo[4.2.0]octan-2-yl]-7-oxo-2H,4H,7H-[1,2,3]triazolo[4,5-b]pyridin-4-yl]acetamide] are at most 5 nM and at most 500 nM.
The matching figures for `CCc1c(N2CCN(C(=O)c3c(O)ccc4ncoc34)CC2)c(=O)c2nn(-c3ccnc(OC)c3)nc2n1CC(=O)NC12CC(C(F)(F)F)(C1)C2` [Compound I-150, 2-{5-ethyl-6-[4-(6-hydroxy-1,3-benzoxazole-7-carbonyl)piperazin-1-yl]-2-(2-methoxypyridin-4-yl)-7-oxo-2H,4H,7H-[1,2,3]triazolo[4,5-b]pyridin-4-yl}-N-[3-(trifluoromethyl)bicyclo[1.1.1]pentan-1-yl]acetamide]: 5 to 50 nM and at most 500 nM.
In the case of `CCc1c(N2CCN(C(=O)c3c(OC)ncc(C)c3O)CC2)c(=O)c2nn(-c3ccnc(OC)c3)nc2n1CC(=O)NC12CC(CC(F)(F)F)(C1)C2` [Compound I-131, 2-{5-ethyl-6-[4-(4-hydroxy-2-methoxy-5-methylpyridine-3-carbonyl)piperazin-1-yl]-2-(2-methoxypyridin-4-yl)-7-oxo-2H,4H,7H-[1,2,3]triazolo[4,5-b]pyridin-4-yl}-N-[3-(2,2,2-trifluoroethyl)bicyclo[1.1.1]pentan-1-yl]acetamide], in assay [1], the IC50 lay in the range of 5 to 50 nM. Further, the EC50 in assay [2] fell in the range of 500 to 2000 nM.
`CCc1c(N2CCN(C(=O)c3ncnc(C)c3O)[C@H]3CC[C@@H]32)c(=O)c2nn(-c3ccnc(OC)c3)nc2n1CC(=O)NC12CC(C3CCC3)(C1)C2` [Compound I-28, N-(3-cyclobutylbicyclo[1.1.1]pentan-1-yl)-2-(5-ethyl-6-((1S,6S)-5-(5-hydroxy-6-methylpyrimidine-4-carbonyl)-2,5-diazabicyclo[4.2.0]octan-2-yl)-2-(2-methoxypyridin-4-yl)-7-oxo-2,7-dihydro-4H-[1,2,3]triazolo[4,5-b]pyridin-4-yl)acetamide]: in assay [1], the IC50 was at most 5 nM. In addition, the EC50 in assay [2] was at most 500 nM.
For `CCc1c(N2CCN(C(=O)c3cn(C)nc3OC)[C@H]3CC[C@@H]32)c(=O)c2nn(C3=CCOCC3)nc2n1CC(=O)NC12CC(C(C)C)(C1)C2` [Compound I-209, 2-[2-(3,6-dihydro-2H-pyran-4-yl)-5-ethyl-6-[(1S,6S)-5-(3-methoxy-1-methyl-1H-pyrazole-4-carbonyl)-2,5-diazabicyclo[4.2.0]octan-2-yl]-7-oxo-2H,4H,7H-[1,2,3]triazolo[4,5-b]pyridin-4-yl]-N-[3-(propan-2-yl)bicyclo[1.1.1]pentan-1-yl]acetamide], the IC50 in assay [1] was 5 to 50 nM. For the same compound, the EC50 in assay [2] is 500 to 2000 nM.
Consider `CCc1c(N2CCN(C(=O)c3csnc3OC)[C@H]3CC[C@@H]32)c(=O)c2nn(C3=CCOCC3)nc2n1CC(=O)NC12CC(C(C)C)(C1)C2` [Compound I-175, 2-[2-(3,6-dihydro-2H-pyran-4-yl)-5-ethyl-6-[(1S,6S)-5-(3-methoxy-1,2-thiazole-4-carbonyl)-2,5-diazabicyclo[4.2.0]octan-2-yl]-7-oxo-2H,4H,7H-[1,2,3]triazolo[4,5-b]pyridin-4-yl]-N-[3-(propan-2-yl)bicyclo[1.1.1]pentan-1-yl]acetamide], for which the IC50 in assay [1] is 5 to 50 nM. Also, in assay [2], the EC50 is at most 500 nM.
Turning to `CCc1c(N2CCN(C(=O)c3c(O)ccc4ncoc34)CC2)c(=O)c2nn(-c3ccnc(OC)c3)nc2n1CC(=O)NC12CC(CC)(C1)C2` [Compound I-142, 2-{5-ethyl-6-[4-(6-hydroxy-1,3-benzoxazole-7-carbonyl)piperazin-1-yl]-2-(2-methoxypyridin-4-yl)-7-oxo-2H,4H,7H-[1,2,3]triazolo[4,5-b]pyridin-4-yl}-N-{3-ethylbicyclo[1.1.1]pentan-1-yl}acetamide], the IC50 in assay [1] fell in the range of 5 to 50 nM. Besides, the EC50 in assay [2] is at most 500 nM.
The matching figures for `CCc1c(N2CCN(C(=O)c3c(OC)ncc(C)c3O)[C@H]3CC[C@@H]32)c(=O)c2nn(-c3ccnc(OC)c3)nc2n1CC(=O)NC12CC(C(F)(F)F)(C1)C2` [Compound I-117, 2-{5-ethyl-6-[(1S,6S)-5-(4-hydroxy-2-methoxy-5-methylpyridine-3-carbonyl)-2,5-diazabicyclo[4.2.0]octan-2-yl]-2-(2-methoxypyridin-4-yl)-7-oxo-2H,4H,7H-[1,2,3]triazolo[4,5-b]pyridin-4-yl}-N-[3-(trifluoromethyl)bicyclo[1.1.1]pentan-1-yl]acetamide]: 5 to 50 nM and at most 500 nM.
Take `CCc1c(N2CCN(C(=O)c3ncnc(C)c3O)[C@H]3CC[C@@H]32)c(=O)c2nn(-c3ccnc(OC)c3)nc2n1CC(=O)NC12CC(C3CC3)(C1)C2` [Compound I-10, N-(3-cyclopropylbicyclo[1.1.1]pentan-1-yl)-2-(5-ethyl-6-((1S,6S)-5-(5-hydroxy-6-methylpyrimidine-4-carbonyl)-2,5-diazabicyclo[4.2.0]octan-2-yl)-2-(2-methoxypyridin-4-yl)-7-oxo-2,7-dihydro-4H-[1,2,3]triazolo[4,5-b]pyridin-4-yl)acetamide]: in assay [1], the IC50 lay within 5 to 50 nM. The EC50 in assay [2] was at most 500 nM.
On to `CCc1c(N2CCN(C(=O)c3ncnc(C)c3O)[C@H]3CC[C@@H]32)c(=O)c2nn(-c3ccnc(OC)c3)nc2n1CC(=O)NC1CC2(C1)CC2F` (stereo partly drawn) [Compound I-69, 2-{5-ethyl-6-[(1S,6S)-5-(5-hydroxy-6-methylpyrimidine-4-carbonyl)-2,5-diazabicyclo[4.2.0]octan-2-yl]-2-(2-methoxypyridin-4-yl)-7-oxo-2H,4H,7H-[1,2,3]triazolo[4,5-b]pyridin-4-yl}-N-{1-fluorospiro[2.3]hexan-5-yl}acetamide], for which the IC50 in assay [1] lay within 5 to 50 nM. In addition, the EC50 in assay [2] fell in the range of 500 to 2000 nM.
For `CCc1c(N2CCN(C(=O)c3ncnc(C)c3O)[C@H]3CC[C@@H]32)c(=O)c2nn(C3CC3(F)F)nc2n1CC(=O)Nc1ccc(C(F)(F)F)cc1Cl` (stereo partly drawn) [Compound I-189, N-[2-chloro-4-(trifluoromethyl)phenyl]-2-[2-(2,2-difluorocyclopropyl)-5-ethyl-6-[(1S,6S)-5-(5-hydroxy-6-methylpyrimidine-4-carbonyl)-2,5-diazabicyclo[4.2.0]octan-2-yl]-7-oxo-2H,4H,7H-[1,2,3]triazolo[4,5-b]pyridin-4-yl]acetamide], the IC50 in assay [1] was at most 5 nM. In assay [2], the EC50 is at most 500 nM.
Take `CCc1c(N2CCN(C(=O)c3c(OC)ccc[n+]3[O-])CC2)c(=O)c2nn(C3=CCOCC3)nc2n1CC(=O)Nc1ccc(C(F)(F)F)cc1Cl` [Compound I-214, 2-{4-[4-({[2-chloro-4-(trifluoromethyl)phenyl]carbamoyl}methyl)-2-(3,6-dihydro-2H-pyran-4-yl)-5-ethyl-7-oxo-2H,4H,7H-[1,2,3]triazolo[4,5-b]pyridin-6-yl]piperazine-1-carbonyl}-3-methoxypyridin-1-ium-1-olate]: in assay [1], the IC50 was 5 to 50 nM. Moreover, in assay [2], the EC50 was above 5000 nM.
The corresponding values for `CCc1c(N2CCN(C(=O)c3ncnc(C)c3O)[C@H]3CC[C@@H]32)c(=O)c2nn(-c3ccnc(OC)c3)nc2n1CC(=O)NC1CC2(C1)CC(F)(F)C2` [Compound I-70, N-{6,6-difluorospiro[3.3]heptan-2-yl}-2-{5-ethyl-6-[(1S,6S)-5-(5-hydroxy-6-methylpyrimidine-4-carbonyl)-2,5-diazabicyclo[4.2.0]octan-2-yl]-2-(2-methoxypyridin-4-yl)-7-oxo-2H,4H,7H-[1,2,3]triazolo[4,5-b]pyridin-4-yl}acetamide] are 5 to 50 nM and 500 to 2000 nM.
On to `CCc1c(N2CCN(C(=O)c3cnn(C)c3OC)[C@H]3CC[C@@H]32)c(=O)c2nn(C3=CCOCC3)nc2n1CC(=O)NC12CC(C(C)C)(C1)C2` [Compound I-210, 2-[2-(3,6-dihydro-2H-pyran-4-yl)-5-ethyl-6-[(1S,6S)-5-(5-methoxy-1-methyl-1H-pyrazole-4-carbonyl)-2,5-diazabicyclo[4.2.0]octan-2-yl]-7-oxo-2H,4H,7H-[1,2,3]triazolo[4,5-b]pyridin-4-yl]-N-[3-(propan-2-yl)bicyclo[1.1.1]pentan-1-yl]acetamide], for which, in assay [1], the IC50 lay within 5 to 50 nM. In assay [2], the EC50 was 500 to 2000 nM.

(Values after patent US20250129069A1, “TRIAZOLO WRN INHIBITORS” (Nimbus Wadjet, Inc., priority 2023, published 2025).)
